Patent US11510914B2, “Agent for inhibiting rise in intraneuronal calcium concentration” (Toray Industries, Inc., priority 2018, dated 2022)
Where two headings read alike, the source gives them in different places.

System: rat spinal dorsal root ganglion (DRG) neurons
Test: High potassium-induced rise in intracellular calcium concentration of rat DRG neurons (Cal-520 AM fluorescence imaging)
Format: cell-based
Conditions: compound 30 μmol/L; for inhibition at 30 µM: Rattus norvegicus, DRG neuron, vehicle group = 0%, read-out: Inhibition rate (%) of a rise in intracellular calcium concentration; for Inhibition of high potassium-induced rise in intracellular calcium concentration, in words: KCl 30 mmol/L, compared to vehicle treatment group, Table 5 experiment
From the text: Example 4 Effect of the cyclic amine derivative (I) or a pharmacologically acceptable salt thereof on high potassium-induced rise in intracellular calcium concentration of rat spinal dorsal root ganglion (DRG) neurons:
The cyclic amine derivative (I) or a pharmacologically acceptable salt thereof was examined for its inhibitory effect on high potassium-induced rise in intracellular calcium concentration of DRG neurons.
The SD rats (4 to 6 weeks old, male; Charles River Laboratories Japan, Inc.) were anesthetized and euthanized by bloodletting from abdominal aorta. After incision of the dorsal part, the spinal column was excised and cooled in ice. The dorsal column was cut off, and the spinal cord was removed from the ventral side of the spinal column. Then, DRGs (L4 to L6) with nerve fibers were excised with tweezers. The excised DRGs were dipped in ice-cold Leibovitz's L-15 medium (Thermo Fisher Scientific), and the nerve fibers were removed under a stereoscopic microscope to separate DRG.
The separated DRGs were made fine slits with ophthalmic scissors, followed by incubation at 37° C. for 20 minutes with Collagenase A (Roche Molecular Systems). After centrifugation at 200×g for 5 minutes, the supernatant was removed, and 0.05% Trypsin-EDTA (Thermo Fisher Scientific) was added, followed by incubation at 37° C. for 5 minutes. DMEM (Thermo Fisher Scientific) containing 1% penicillin-streptomycin (Thermo Fisher Scientific) and 10% fetal bovine serum (Thermo Fisher Scientific) was added thereto. After centrifugation at 200×g for 5 minutes, the supernatant was removed. After the removal of the supernatant, Neurobasal-A Medium (Thermo Fisher Scientific) containing 1% penicillin-streptomycin and 2% B-27 (Thermo Fisher Scientific), which was prepared as a DRG nerve culture medium, was added. Then, the cells were dissociated by micropipetting. The dissociated cells were passed through a 70 μm cell strainer (Greiner) and centrifuged at 200×g for 5 minutes. After the centrifugation, the supernatant was removed, and the cells were suspended by the culture medium. This cell suspension was inoculated to a polylysine-coated 35 mm dish (Matsunami Glass Ind., Ltd.) coated in advance with laminin (Sigma-Aldrich), cultured overnight at 37° C. under 5% CO2, and then used in the measurement of change in intracellular calcium concentration.
Cal-520, AM(registered trademark) (AAT Bioquest) was used as a calcium fluorescent dye. The medium was removed from the cells cultured in the dish, and the cells were washed twice with a perfusate. Then, a Cal-520, AM solution adjusted to 4 μmol/L was added thereto, and the cells were cultured at 37° C. for 1 to 1.5 hours under 5% CO2. The perfusate was an aqueous solution containing NaCl (140 mmol/L), KCl (5 mmol/L), CaCl2)·2H2O (1.2 mmol/L), MgCl2.6H2O (2 mmol/L), D(+)-glucose (14 mmol/L) and HEPES (10 mmol/L), adjusted to pH 7.4. Then, the dish was washed by perfusion at 2 mL/min for 10 minutes.
Change in intracellular calcium concentration was measured by analyzing with analytical software, change in fluorescence intensity of the cells loaded with the calcium fluorescent dye in images taken under a confocal laser microscope system (Nikon Instech Co., Ltd.). The laser wavelength was 488 nm, and the images were acquired at intervals of 57 to 60 sheets per minute.
For the induction of neuronal excitation, a treatment with a high potassium solution (hereinafter, “high potassium treatment”) was performed to induce a rise in intracellular calcium concentration by the depolarization of cell membranes. The high potassium treatment and a treatment with the cyclic amine derivative (I) or a pharmacologically acceptable salt thereof (compounds 1 to 10, compound of Comparative Example 1 and compound of Comparative Example 2) (hereinafter, “compound treatment”) of the cells were performed by the perfusion and replacement of a solution. The perfusion rate was controlled to 2 mL/min using a tube pump. […]

[1] = high potassium treatment (KCl 32.5 mmol/L or 30 mmol/L), average of 106 to 262 cells per group
[2] = high potassium treatment (KCl 30 mmol/L), average of 60 to 250 cells per group

Compound	inhibition at 30 µM [1] [%]	inhibition at 30 µM [2] [%]	Inhibition of high potassium-induced rise in intracellular calcium concentration, in words
CCn1ccnc1C(O)CC(=O)N1CCC(N(C)C)CC1 (stereo not shown) [Compound 1, 1-(4-(dimethylamino)piperidin-1-yl)-3-(1-ethyl-1H-imidazol-2-yl)-3-hydroxypropan-1-one]	35.5	–	–
CN(C)C1CCN(C(=O)C[C@H](O)c2nccn2C)CC1 [Compound 2, (S)-1-(4-(dimethylamino)piperidin-1-yl)-3-hydroxy-3-(1-methyl-1H-imidazol-2-yl)propan-1-one]	19.3	–	–
CN(C)C1CCN(C(=O)CC(O)c2nccn2CC(F)(F)F)CC1 (stereo not shown) [Compound 3, 1-(4-(dimethylamino)piperidin-1-yl)-3-hydroxy-3-(1-(2,2,2-trifluoroethyl)-1H-imidazol-2-yl)propan-1-one]	17.8	–	–
CN(C)C1CCN(C(=O)CCc2nccn2C)CC1 [Compound 4, 1-(4-(dimethylamino)piperidin-1-yl)-3-(1-methyl-1H-imidazol-2-yl)propan-1-onesulfatemonohydrate]	11.9	–	–
CN(C)[C@@H]1CCCN(C(=O)CC(O)c2nccn2C)C1 (stereo partly shown) [Compound 5]	–	39	–
CN1CCN(C2CCN(C(=O)CC(O)c3nccn3C)CC2)CC1 (stereo not shown) [Compound 6, 3-hydroxy-3-(1-methyl-1H-imidazol-2-yl)-1-(4-(4-methylpipzerazin-1-yl)piperidin-1-yl)propan-1-one]	–	23.3	–
CCCn1ccnc1C(O)CC(=O)N1CCC(N(C)C)CC1 (stereo not shown) [Compound 7, 1-(4-(dimethylamino)piperidin-1-yl)-3-(1-propyl-1H-imidazol-2-yl)-3-hydroxypropan-1-one]	–	15.4	–
CN(C)C1CCN(C(=O)CC(O)c2ncc(Cl)n2C)CC1 (stereo not shown) [Compound 9, 3-(5-chloro-1-methyl-1H-imidazol-2-yl)-1-(4-(dimethylamino)piperidin-1-yl)-3-hydroxypropan-1-one]	–	7.1	–
CC(C)n1ccnc1C(O)CC(=O)N1CCC(N(C)C)CC1 (stereo not shown) [Compound 10, 1-(4-(dimethylamino)piperidin-1-yl)-3-(1-isopropyl-1H-imidazol-2-yl)-3-hydroxypropan-1-one]	–	5.9	–
COCCn1ccnc1C(O)CC(=O)N1CCC(N(C)C)CC1 (stereo not shown) [Compound of Comparative Example 1, 1-(4-(dimethylamino)piperidin-1-yl)-3-(1-(2-methoxyethyl)-1H-imidazol-2-yl)-3-hydroxypropan-1-one, reference compound]	–	-3.3	not inhibited
CN(C)C1CCN(C(=O)CC(O)c2nccn2CCC(F)(F)F)CC1 (stereo not shown) [Compound of Comparative Example 2, 1-(4-(dimethylamino)piperidin-1-yl)-3-(1-(3,3,3-trifluoropropyl)-1H-imidazol-2-yl)-3-hydroxypropan-1-one, reference compound]	–	-1.1	not inhibited
